According to patent US20060188867A1, “Method of cryopreserving cells and tissues by liposomal delivery of sugars to enhance post-thaw viability” (Canadian Blood Services, priority 2005, published 2006):

Test system: red blood cells (RBCs)
Assay: flow cytometry of liposomal loading of carboxyfluorescein/trehalose into red blood cells, FIGS. 1A-1E
Assay type: cell-based, human
Conditions: no liposomes (FIG. 1C)
Protocol: However, it should be noted that the ratio of DPPC to cholesterol can, of course, be varied, as will be appreciated by those of ordinary skill in the art. The liposomes also have an aqueous core that can be composed of, by way of example only, 3.3 mM NaCl, 40 mM KCl, 1.7 mM glucose, 6.7 mM HEPES, 200 mM sucrose or trehalose and 100 μM 5(6)-carboxyfluorescein (CF). As it is known in the art, 5(6)-CF is an impermeable fluorescent marker with a molecular weight similar to that of sucrose and trehalose. This marker can be used to detect the liposome population using flow cytometry and is thus a useful and reliable indicator of loading efficiency. A single uniform population and intense FITC (Fluorescein isothiocyanate) peak verify liposome homogeneity and entrapment of the marker in the aqueous core.
In order to validate the methods described herein, human red blood cells and TF-1 (CRL2003, ATTC) cells were used as […] model systems. The mechanism of liposomal interaction with the cell is believed to be cell-type dependent and is believed to involve processes of adsorption, fusion and endocytosis.
FIGS. 1A to 1E are flow cytometry plots used to examine the effects of loading trehalose into red blood cells (RBCs). Liposomes composed of DPPC/cholesterol in the ratio of 70:30 were constructed so as to have a concentration of 0.29M trehalose inside and outside. […]

permeation of free CF into RBCs (fluorescence of RBCs in CF-containing media): cannot cross into RBCs
Substance: 5(6)-carboxyfluorescein [CF]
